Results published in patent publication US20250171495A1, “MUTLI-TARGETED SERINE PROTEASE INHIBITORS FOR TREATMENT OF CANCER AND VIRAL INFECTION” (Washington University, priority 2023, published 2025).
Where “and” joins values, the source holds several entries; their conditions need not be identical. Equal entries are not always repeated. Where two headings read alike, the source gives them in different places.

Columns and labels:
Format in all cases: biochemical
[1] = target: T1, TMPRSS2 (Homo sapiens, UniProt O15393); assay: Fluorogenic kinetic enzyme inhibitor assay, TMPRSS2; set-up: purchased Cusabio Technology CSB-YP023924HU
Target sequence in this assay (O15393 106-492 limits assumed): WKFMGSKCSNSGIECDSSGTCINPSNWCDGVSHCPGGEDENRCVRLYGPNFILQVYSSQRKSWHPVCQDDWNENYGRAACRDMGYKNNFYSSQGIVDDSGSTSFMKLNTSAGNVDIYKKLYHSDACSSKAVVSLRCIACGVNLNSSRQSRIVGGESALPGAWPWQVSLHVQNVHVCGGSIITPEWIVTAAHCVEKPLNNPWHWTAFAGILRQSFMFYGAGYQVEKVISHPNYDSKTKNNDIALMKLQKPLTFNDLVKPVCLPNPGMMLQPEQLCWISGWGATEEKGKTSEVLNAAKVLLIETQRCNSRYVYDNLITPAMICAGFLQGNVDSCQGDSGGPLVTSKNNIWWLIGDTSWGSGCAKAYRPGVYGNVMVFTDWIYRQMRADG

[2] = target: T1, TMPRSS2; assay: PS-SCL / HyCoSuL substrate specificity screening, TMPRSS2; settings: for P2 Position Substrate Activity for TMPRSS2 (percent substrate cleavage/proteolysis): residue fixed at P2 position of substrate library
Target sequence in this assay (O15393 whole entry): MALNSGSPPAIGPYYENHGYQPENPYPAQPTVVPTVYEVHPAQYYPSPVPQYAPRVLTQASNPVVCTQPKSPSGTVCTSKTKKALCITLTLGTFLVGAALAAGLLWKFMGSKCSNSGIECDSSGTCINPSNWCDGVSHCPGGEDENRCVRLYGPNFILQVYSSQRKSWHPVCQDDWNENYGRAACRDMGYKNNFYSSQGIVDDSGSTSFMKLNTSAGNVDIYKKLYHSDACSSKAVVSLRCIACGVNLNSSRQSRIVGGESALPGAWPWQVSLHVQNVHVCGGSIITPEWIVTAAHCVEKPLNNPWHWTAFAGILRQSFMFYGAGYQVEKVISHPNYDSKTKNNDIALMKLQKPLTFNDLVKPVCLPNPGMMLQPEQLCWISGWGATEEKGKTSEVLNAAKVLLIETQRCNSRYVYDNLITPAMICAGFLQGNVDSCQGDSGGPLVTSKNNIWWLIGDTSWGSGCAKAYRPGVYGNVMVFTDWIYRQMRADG

[3] = target: T2, matriptase (Homo sapiens, UniProt Q9Y5Y6); assay: HyCoSuL P4-P2 substrate specificity screening, matriptase; settings: for P2 Position Substrate Activity for matriptase (percent substrate cleavage/proteolysis): residue fixed at P2 position; for P3 Position Various Amino Acids Substrate Activity, matriptase (percent substrate cleavage/proteolysis): residue fixed at P3 position of substrate library; for P4 Position Various Amino Acids Substrate Activity, matriptase (percent substrate proteolysis/cleavage): residue fixed at P4 position of substrate library
T2 sequence (Q9Y5Y6 1-855): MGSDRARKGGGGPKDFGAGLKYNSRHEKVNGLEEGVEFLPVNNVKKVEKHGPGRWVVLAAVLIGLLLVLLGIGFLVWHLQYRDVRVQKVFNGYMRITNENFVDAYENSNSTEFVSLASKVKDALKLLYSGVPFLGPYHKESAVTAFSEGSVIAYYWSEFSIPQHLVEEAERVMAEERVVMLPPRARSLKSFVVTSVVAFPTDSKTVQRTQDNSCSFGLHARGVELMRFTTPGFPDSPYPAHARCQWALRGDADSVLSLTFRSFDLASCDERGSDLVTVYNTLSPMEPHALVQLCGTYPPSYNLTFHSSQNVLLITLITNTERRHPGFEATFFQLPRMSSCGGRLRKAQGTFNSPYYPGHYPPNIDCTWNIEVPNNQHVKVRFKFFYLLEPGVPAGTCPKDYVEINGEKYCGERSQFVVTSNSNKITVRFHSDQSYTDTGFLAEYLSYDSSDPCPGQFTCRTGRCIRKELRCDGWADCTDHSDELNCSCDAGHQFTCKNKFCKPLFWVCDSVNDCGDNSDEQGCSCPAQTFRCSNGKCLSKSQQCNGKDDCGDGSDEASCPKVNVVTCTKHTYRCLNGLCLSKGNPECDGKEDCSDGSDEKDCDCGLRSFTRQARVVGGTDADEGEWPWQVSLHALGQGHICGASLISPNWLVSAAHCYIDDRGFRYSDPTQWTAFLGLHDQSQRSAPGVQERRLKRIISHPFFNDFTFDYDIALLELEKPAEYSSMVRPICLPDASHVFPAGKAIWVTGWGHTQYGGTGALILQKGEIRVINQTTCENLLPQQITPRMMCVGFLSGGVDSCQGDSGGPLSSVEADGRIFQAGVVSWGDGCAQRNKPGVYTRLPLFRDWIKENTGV

[4] = target: T3, hepsin (Homo sapiens, UniProt P05981); assay: HyCoSuL P4-P2 substrate specificity screening, hepsin; settings: for P2 Position Substrate Activity for hepsin (percent substrate cleavage/proteolysis): residue fixed at P2 position; for P3 Position Various Amino Acids Substrate Activity, hepsin (percent substrate cleavage/proteolysis): residue fixed at P3 position of substrate library; for P4 Position Various Amino Acids Substrate Activity, hepsin (percent substrate proteolysis/cleavage): residue fixed at P4 position of substrate library
T3 construct: purchased R&D Systems 4776-SE-010

[5] = target: T4, HGFA (Homo sapiens, UniProt Q04756); assay: HyCoSuL P4-P2 substrate specificity screening, HGFA; settings: for P2 Position Substrate Activity for HGFA (percent substrate cleavage/proteolysis): residue fixed at P2 position; for P3 Position Various Amino Acids Substrate Activity, HGFA (percent substrate cleavage/proteolysis): residue fixed at P3 position of substrate library; for P4 Position Various Amino Acids Substrate Activity, HGFA (percent substrate proteolysis/cleavage): residue fixed at P4 position of substrate library
T4 sequence (Q04756 373-655): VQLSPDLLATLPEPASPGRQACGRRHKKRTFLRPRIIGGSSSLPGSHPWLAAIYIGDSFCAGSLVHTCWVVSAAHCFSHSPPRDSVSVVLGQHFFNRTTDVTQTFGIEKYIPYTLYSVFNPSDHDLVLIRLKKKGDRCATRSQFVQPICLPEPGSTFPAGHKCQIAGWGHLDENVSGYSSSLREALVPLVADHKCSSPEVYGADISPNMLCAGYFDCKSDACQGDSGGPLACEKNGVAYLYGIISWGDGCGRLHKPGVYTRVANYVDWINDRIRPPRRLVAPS

[6] = best recognized amino acid set to 100%
[7] = residue fixed at P3 position of substrate library
[8] = residue fixed at P4 position of substrate library
[9] = P1-Arg HyCoSuL, 100 μM, best recognized amino acid set to 100%
[10] = residue fixed at P3 position, P1-Arg HyCoSuL, 100 μM, best recognized amino acid set to 100%
[11] = residue fixed at P4 position, P1-Arg HyCoSuL, 100 μM, best recognized amino acid set to 100%

T3 sequence (P05981 163-417 limits assumed): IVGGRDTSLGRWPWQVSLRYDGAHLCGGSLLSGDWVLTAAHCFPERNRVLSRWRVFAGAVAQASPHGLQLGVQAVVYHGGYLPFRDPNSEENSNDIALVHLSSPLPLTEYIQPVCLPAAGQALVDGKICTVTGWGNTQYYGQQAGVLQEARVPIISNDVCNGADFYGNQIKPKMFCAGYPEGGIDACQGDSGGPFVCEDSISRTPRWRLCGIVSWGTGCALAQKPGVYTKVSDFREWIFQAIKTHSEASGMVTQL
T3 sequence (P05981 1-162 partner limits assumed): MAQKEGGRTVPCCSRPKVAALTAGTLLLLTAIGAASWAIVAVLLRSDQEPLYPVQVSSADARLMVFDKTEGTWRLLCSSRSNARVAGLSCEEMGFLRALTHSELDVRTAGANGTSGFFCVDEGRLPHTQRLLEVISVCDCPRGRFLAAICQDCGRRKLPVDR

Row | Molecule | IC50 ([1]; read-out: TMPRSS2 IC50) | P2 Position Substrate Activity for TMPRSS2 (percent substrate cleavage/proteolysis) [2, 6] | P2 Position Substrate Activity for matriptase (percent substrate cleavage/proteolysis) [3, 9] | P3 Position Various Amino Acids Substrate Activity, matriptase (percent substrate cleavage/proteolysis) [3] | P4 Position Various Amino Acids Substrate Activity, matriptase (percent substrate proteolysis/cleavage) [3] | P2 Position Substrate Activity for hepsin (percent substrate cleavage/proteolysis) [4, 9] | P2 Position Substrate Activity for HGFA (percent substrate cleavage/proteolysis) [5, 9] | further results
1 | C=CCOC(=O)CC[C@H](NC(=O)[C@@H]1Cc2ccccc2N1C(C)=O)C(=O)N[C@@H](Cc1ccc(F)cc1)C(=O)N[C@H](CCCNC(=N)N)C(=O)c1nc2ccccc2s1 [MF1067A, allyl (S)-4-[(S)-1-acetyl-2-indolinylcarbonylamino]-4-[N-(S)-2-(p-fluorophenyl)-1-[N-(R)-1-[(1,3-benzothiazol-2-yl)carbonyl]-4-guanidinobutylcarbamoyl]ethylcarbamoyl]butyrate] | – | – | – | – | – | – | – | IC50 [1]: 0.431 nM
2 | C=CCOC(=O)CC[C@H](NC(=O)[C@@H]1Cc2ccccc2N1C(C)=O)C(=O)N[C@@H](Cc1ccc(F)cc1)C(=O)N[C@@H](CCCNC(=N)N)C(=O)c1nc2ccccc2s1 [MF1067B, allyl (S)-4-[(S)-1-acetyl-2-indolinylcarbonylamino]-4-[N-(S)-2-(p-fluorophenyl)-1-[N-(S)-1-[(1,3-benzothiazol-2-yl)carbonyl]-4-guanidinobutylcarbamoyl]ethylcarbamoyl]butyrate] | – | – | – | – | – | – | – | IC50 [1]: 0.2 nM
3 | N=C(N)NCCC[C@H](NC(=O)[C@H](CCc1ccc(O)cc1)NC(=O)OCC1c2ccccc2-c2ccccc21)C(=O)c1nc2ccccc2s1 [MF1163, (S)-3-(p-hydroxyphenyl)-1-[N-(S)-1-[(1,3-benzothiazol-2-yl)carbonyl]-4-guanidinobutylcarbamoyl] propyl (9H-fluoren-9-yl)methanecarbamate] | 0.167 nM | – | – | – | – | – | – | –
4 | CC(C)CC[C@H](NC(=O)OCC1c2ccccc2-c2ccccc21)C(=O)N[C@@H](CCCNC(=N)N)C(=O)c1nc2ccccc2s1 [MF1164, (S)-4-methyl-1-[N-(S)-1-[(1,3-benzothiazol-2-yl)carbonyl]-4-guanidinobutylcarbamoyl] pentyl (9H-fluoren-9-yl)methanecarbamate] | 458 nM | – | – | – | – | – | – | –
5 | CC(=O)NCC(=O)N[C@@H](CCC(N)=O)C(=O)N[C@@H](Cc1ccccc1)C(=O)N[C@H](CCCNC(=N)N)C(=O)c1nc2ccccc2s1 [MM3122-1, N-[(S)-1-[N-(R)-1-[(1,3-benzothiazol-2-yl)carbonyl]-4-guanidinobutylcarbamoyl]-2-phenylethyl](S)-2-[(acetylaminomethyl)carbonylamino]glutaramide] | 6.46 nM | – | – | – | – | – | – | –
6 | CC(=O)N[C@@H](CCCCNC(=N)N)C(=O)N[C@@H](Cc1cncn1COCc1ccccc1)C(=O)N[C@@H](CCC(C)C)C(=O)N[C@H](CCCNC(=N)N)C(=O)c1nc2ccccc2s1 [MM4031-1, N-[(R)-1-[(1,3-benzothiazol-2-yl)carbonyl]-4-guanidinobutyl](S)-2-[(S)-2-[(S)-1-acetylamino-5-guanidinopentylcarbonylamino]-3-{1-[(benzyloxy)methyl]-5-imidazolyl}propionylamino]-5-methylhexanamide] | 7.54 nM | – | – | – | – | – | – | –
7 | CC(=O)N[C@@H](CCCCNC(=N)N)C(=O)N[C@@H](Cc1cncn1COCc1ccccc1)C(=O)N[C@@H](CCC(C)C)C(=O)N[C@@H](CCCNC(=N)N)C(=O)c1nc2ccccc2s1 [MM4031-2, N-[(S)-1-[(1,3-benzothiazol-2-yl)carbonyl]-4-guanidinobutyl](S)-2-[(S)-2-[(S)-1-acetylamino-5-guanidinopentylcarbonylamino]-3-{1-[(benzyloxy)methyl]-5-imidazolyl}propionylamino]-5-methylhexanamide] | 9.39 nM | – | – | – | – | – | – | –
8 | CCC(C)[C@H](NC(C)=O)C(=O)N[C@@H](CCC(=O)O)C(=O)N[C@@H](Cc1ccccc1)C(=O)N[C@H](CCCNC(=N)N)C(=O)c1nc2ccccc2s1 (stereo partly drawn) [MM4037-1, (S)-4-[(2S)-2-acetylamino-3-methylvalerylamino]-4-[N-(S)-1-[N-(R)-1-[(1,3-benzothiazol-2-yl)carbonyl]-4-guanidinobutylcarbamoyl]-2-phenylethylcarbamoyl]butyric acid] | 0.385 nM | – | – | – | – | – | – | –
9 | L-Thr | – | 22.02% | 15% | 31% | 14% | 70.75% | 8.87% | P3 Position Various Amino Acids Substrate Activity, TMPRSS2 (percent substrate cleavage/proteolysis) [2, 7]: 39.80%; P4 Position Various Amino Acids Substrate Activity, TMPRSS2 (percent substrate proteolysis/cleavage) [2, 8]: 21.84%; P3 Position Various Amino Acids Substrate Activity, hepsin (percent substrate cleavage/proteolysis) [4]: 35.34%; P4 Position Various Amino Acids Substrate Activity, hepsin (percent substrate proteolysis/cleavage) [4]: 29.29%; P3 Position Various Amino Acids Substrate Activity, HGFA (percent substrate cleavage/proteolysis) [5]: 14.51%; P4 Position Various Amino Acids Substrate Activity, HGFA (percent substrate proteolysis/cleavage) [5]: 7.67%
10 | L-Trp | – | 33.05% | 32% | 11% | 9% | 6.00% | 4.04% | P3 Position Various Amino Acids Substrate Activity, TMPRSS2 (percent substrate cleavage/proteolysis) [2, 7]: 22.96%; P4 Position Various Amino Acids Substrate Activity, TMPRSS2 (percent substrate proteolysis/cleavage) [2, 8]: 24.62%; P3 Position Various Amino Acids Substrate Activity, hepsin (percent substrate cleavage/proteolysis) [4]: 0.00%; P4 Position Various Amino Acids Substrate Activity, hepsin (percent substrate proteolysis/cleavage) [4]: 6.82%; P3 Position Various Amino Acids Substrate Activity, HGFA (percent substrate cleavage/proteolysis) [5]: 17.50%; P4 Position Various Amino Acids Substrate Activity, HGFA (percent substrate proteolysis/cleavage) [5]: 8.78%
11 | L-Tyr | – | 31.93% | 12% | 17% | 14% | 22.79% | 3.17% | P3 Position Various Amino Acids Substrate Activity, TMPRSS2 (percent substrate cleavage/proteolysis) [2, 7]: 16.18%; P4 Position Various Amino Acids Substrate Activity, TMPRSS2 (percent substrate proteolysis/cleavage) [2, 8]: 31.87%; P3 Position Various Amino Acids Substrate Activity, hepsin (percent substrate cleavage/proteolysis) [4]: 7.75%; P4 Position Various Amino Acids Substrate Activity, hepsin (percent substrate proteolysis/cleavage) [4]: 22.39%; P3 Position Various Amino Acids Substrate Activity, HGFA (percent substrate cleavage/proteolysis) [5]: 11.59%; P4 Position Various Amino Acids Substrate Activity, HGFA (percent substrate proteolysis/cleavage) [5]: 16.47%
12 | L-hArg | – | 13.07% | 16% | 44% | 86% | 57.96% | 5.83% | P3 Position Substrate Activity for TMPRSS2 (percent substrate cleavage/proteolysis) ([2]; residue fixed at P3 position of substrate library, best recognized amino acid set to 100%): 18.34%; P4 Position Substrate Activity for TMPRSS2 (percent substrate cleavage/proteolysis) ([2]; residue fixed at P4 position of substrate library, best recognized amino acid set to 100%): 44.91%; P3 Position Substrate Activity for matriptase (percent substrate cleavage/proteolysis) [3, 10]: 44.42%; P4 Position Substrate Activity for matriptase (percent substrate cleavage/proteolysis) [3, 11]: 76.43% and 86.17%; P3 Position Substrate Activity for hepsin (percent substrate cleavage/proteolysis) [4, 10]: 47.00%; P4 Position Substrate Activity for hepsin (percent substrate cleavage/proteolysis) [4, 11]: 56.24%; P3 Position Substrate Activity for HGFA (percent substrate cleavage/proteolysis) [5, 10]: 100.00%; P4 Position Substrate Activity for HGFA (percent substrate cleavage/proteolysis) [5, 11]: 22.07%
